According to US20210253520A1, “POLYMYXIN-BASED COMPOUNDS USEFUL AS ANTIBACTERIAL AGENTS” (UNIVERSITAT DE BARCELONA, priority 2018, published 2021):
≈ marks a conversion by molar mass, not a printed value. Read-outs that look alike come from different tables or passages of the source. Numbered stars: 1 amine (or outer) side, 2 acyl side, 3 side chain; on linkers, the order of the positions; unused ones are H or OH. Bridge positions count the residues as written; N and C are the ends. Square brackets hold non-standard residues; d marks the D form. Peptide text beside a SMILES is read from it. * marks the point of attachment. X1 = C[C@@H](O)[C@@H](CS[*:1])N[*:2]; dGly(nOct) = CCCCCCCC[C@@H](N)C(=O)O; Hica(2S) = CC(C)C[C@H](O)C(=O)O; Octanoyl = CCCCCCCC(=O)*; Dab = NCC[C@H](N)C(=O)O

Assays:
P. aeruginosa ATCC 27853 = test: microbe, parasite or virus in culture; type: cell-based; details: for MIC: resistance profile of strain P. aeruginosa ATCC 27853, Table 3; for antibacterial activity (MIC): ATCC 27853
Procedure: (§1) The antibacterial activity of the polymyxin lipopeptides was measured at ISGlobal following the microdilution test to determine the Minimal Inhibitory Concentrations (MIC) in sterile 96-well polypropilene plates. The concentration range was 32 a […] in Iso-Sensitest broth (Oxoid, ThermoFisher). The results were carried out in triplicate and the highest MIC is the one shown. Bacterial strains were grown in blood agar plates at 37° C. for 17 h. Fresh colonies were used to prepare a McFarland 0.5 solution that was finally added to the plates at 1 to 100 dilution
(§2) Samples of sensitive and multi-drug resistant bacteria were: E. coli ATCC 25922 E. coli MB1410; K. pneumoniae MB674; P. aeruginosa ATCC 27853; P. aeruginosa 36A.

E. coli MB1410 = test: microbe, parasite or virus in culture; type: cell-based; details: for antibacterial activity (MIC): MB1410
Procedure: as §1, §2

E. coli ATCC 25922 = test: microbe, parasite or virus in culture; type: cell-based; details: for MIC: resistance profile of strain E. coli ATCC 25922, Table 3; for antibacterial activity (MIC): ATCC 25922
Procedure: as §1, §2

P. aeruginosa 36A = test: microbe, parasite or virus in culture; type: cell-based; details: for antibacterial activity (MIC): 36A
Procedure: as §1, §2

Swiss CD-1 female mice = test: Nephrotoxicity study, histopathological scoring of kidney lesions; type: in vivo; set-up: key to Group Score (GS): mean of per-animal summed 0-4 lesion scores; higher = more nephrotoxic; key to Animal Score (AS), Partial AS: sum of 0-4 lesion parameter scores; higher = more nephrotoxic; details: for Animal Score (AS), Partial AS: sum over all mice
Procedure: Swiss CD-1 female mice weighing approximately 20-24 g (JANVIER Labs) were used, housed in an individually ventilated cage system under specific pathogen-free conditions, and water and food supplied ad libitum. This study plan and the conduct of the study were subjected to review by the Scientific Park of Barcelona Ethical Review Process with the current study procedure Code CEEA (AR) 9377-P2. Mice were administered at a dose of 12 mg/Kg every 2 hours for a total of 6 administrations (total dose 72 mg/Kg), unless otherwise stated. After 20 h, animals were anesthesized with isoflurane, kidneys extracted and prepared for histopathological evaluation, and finally animales were sacrificed. Kidney lesions (tubule dilation, necrosis, tubule casts, cell vacuolization, cell desquamation, and cell swelling) were quantified by microscopical observation (see for instance, Roberts, ACS Infect. Dis., 2015, 1, 568). Each one of these parameters was scored with values from 0 to 4 for each animal, as a global result of observations in kidney. Partial scores have been added up to obtain a final score for each animal (Animal Score, AS). The mean of animal score has been obtained to define the Group Score (GS). The higher the score, the more nephrotoxic a compound is. The nephrotoxicity score has been determined as according to the following table of approximated values: […]

K. pneumoniae MB674 = type: cell-based; details: MB674
Procedure: as §1, §2

[1] = Pseudomonas aeruginosa, ATCC27853, read-out: MIC
[2] = Escherichia coli, ATCC25922, read-out: MIC
[3] = Table 6, 12 mg/Kg every 2 hours × 6, subcutaneous, total 72 mg/Kg
[4] = Table 6, mean of animal scores, 12 mg/Kg every 2 hours × 6, subcutaneous, total 72 mg/Kg
[5] = Table 6, sum of mouse scores, 12 mg/Kg every 2 hours × 6, subcutaneous, total 72 mg/Kg
[6] = Table 7, 8 mg/Kg every 2 hours × 6, total 48 mg/Kg

## NCC[C@H](O)C(=O)N[C@@H]1C[C@H](N)[C@@H](O[C@H]2O[C@H](CN)[C@@H](O)[C@H](O)[C@H]2O)[C@H](O)[C@H]1O[C@H]1O[C@H](CO)[C@@H](O)[C@H](N)[C@H]1O [Ak, Amikacin]
P. aeruginosa ATCC 27853; [1]
  MIC: 4 µg/mL (≈ 6.83 µM)
E. coli MB1410; Escherichia coli, resistance profile of strain E. coli MB1410, Table 3, read-out: MIC
  MIC: 6 µg/mL (≈ 10.2 µM)
E. coli ATCC 25922; [2]
  MIC: 2 µg/mL (≈ 3.42 µM)
P. aeruginosa 36A; Pseudomonas aeruginosa, resistance profile of strain P. aeruginosa 36A, Table 3, read-out: MIC
  MIC: 2 µg/mL (≈ 3.42 µM)

## CC(C)(O/N=C(\C(=O)N[C@@H]1C(=O)N2C(C(=O)[O-])=C(C[n+]3ccccc3)CS[C@H]12)c1csc(N)n1)C(=O)O [CAZ, Ceftacidime]
P. aeruginosa ATCC 27853
  MIC: 0.5 µg/mL (≈ 0.915 µM)
E. coli ATCC 25922
  MIC: 0.25 µg/mL (≈ 0.457 µM)

## CO/N=C(\C(=O)N[C@@H]1C(=O)N2C(C(=O)O)=C(COC(C)=O)CS[C@H]12)c1csc(N)n1 [CTX, Cefotaxime]
E. coli ATCC 25922; [2]
  MIC: 0.5 µg/mL (≈ 1.1 µM)

## O=C(O)c1cn(C2CC2)c2cc(N3CCNCC3)c(F)cc2c1=O [Cip, Ciprofloxacin]
P. aeruginosa ATCC 27853; [1]
  MIC: 0.25 µg/mL (≈ 0.754 µM)
E. coli ATCC 25922; [2]
  MIC: 0.06 µg/mL (≈ 0.181 µM)

## CCCCCCCC[C@@H](N)C(=O)N[C@H](C(=O)N[C@@H](CCN)C(=O)N[C@H]1CSSC[C@H]([C@@H](C)O)NC(=O)[C@H](CCN)NC(=O)[C@H](CCN)NC(=O)[C@H](CC(C)C)NC(=O)[C@@H](Cc2ccccc2)NC(=O)[C@H](CCN)NC1=O)[C@@H](C)O [Example 5, DAdec-Thr-Dab-cyclo(S-S)[Cys-Dab-DPhe-Leu-Dab-Dab-Ttr]] (H-[dGly(nOct)]T[Dab]C[Dab][dF]L[Dab][Dab]; linker 4-C via X1; N-terminus assumed)
P. aeruginosa ATCC 27853
  antibacterial activity (MIC): 2 µg/mL
E. coli MB1410
  antibacterial activity (MIC): 1 µg/mL
E. coli ATCC 25922
  antibacterial activity (MIC): 1 µg/mL
P. aeruginosa 36A
  antibacterial activity (MIC): 2 µg/mL
Swiss CD-1 female mice; [3]
  Mice found dead: None
  Animal Score (AS), Partial AS: 3
Swiss CD-1 female mice; [4]
  Group Score (GS): 0.4
Swiss CD-1 female mice; [5]
  Cell desquamation, Partial AS: 0
  Cell vacuolization, Partial AS: 0
  Cloudy swelling, Partial AS: 3
  Tubular casts, Partial AS: 0
  Tubular dilation, Partial AS: 0
  Tubular necrosis, Partial AS: 0
Swiss CD-1 female mice; [6]
  AS, Partial AS: 0
  Cell vacuolization, Partial AS: 0
  Cloudy swelling, Partial AS: 0
  Group Score (GS): 0
  Mice found dead: None
  Tubular casts, Partial AS: 0
  Tubular dilation, Partial AS: 0
  Tubular necrosis, Partial AS: 0
K. pneumoniae MB674
  antibacterial activity (MIC): 1 µg/mL

## CCCCCCCC[C@@H](N)C(=O)N[C@H](C(=O)N[C@@H](CCN)C(=O)N[C@H]1CSSC[C@H]([C@@H](C)O)NC(=O)[C@H](CCN)NC(=O)[C@H](CCN)NC(=O)[C@H](CC(C)C)NC(=O)[C@@H](CC(C)C)NC(=O)[C@H](CCN)NC1=O)[C@@H](C)O [Example 6, DAdec-Thr-Dab-cyclo(S-S)[Cys-Dab-DLeu-Leu-Dab-Dab-Ttr]] (H-[dGly(nOct)]T[Dab]C[Dab][dL]L[Dab][Dab]; linker 4-C via X1; N-terminus assumed)
P. aeruginosa ATCC 27853
  antibacterial activity (MIC): 1 µg/mL
E. coli MB1410
  antibacterial activity (MIC): 0.5 µg/mL
E. coli ATCC 25922
  antibacterial activity (MIC): 2 µg/mL
P. aeruginosa 36A
  antibacterial activity (MIC): 0.5 µg/mL
Swiss CD-1 female mice; [3]
  Mice found dead: 2
  Animal Score (AS), Partial AS: 6
Swiss CD-1 female mice; [4]
  Group Score (GS): 1
Swiss CD-1 female mice; [5]
  Cell desquamation, Partial AS: 0
  Cell vacuolization, Partial AS: 0
  Cloudy swelling, Partial AS: 5
  Tubular casts, Partial AS: 1
  Tubular dilation, Partial AS: 0
  Tubular necrosis, Partial AS: 0
Swiss CD-1 female mice; [6]
  AS, Partial AS: 1
  Cell vacuolization, Partial AS: 0
  Cloudy swelling, Partial AS: 1
  Group Score (GS): 0.2
  Mice found dead: None
  Tubular casts, Partial AS: 0
  Tubular dilation, Partial AS: 0
  Tubular necrosis, Partial AS: 0
K. pneumoniae MB674
  antibacterial activity (MIC): 0.5 µg/mL

## CCCCCCCC(=O)N[C@@H](CCN)C(=O)N[C@H](C(=O)N[C@@H](CCN)C(=O)N[C@H]1CSSC[C@H]([C@@H](C)O)NC(=O)[C@H](CCN)NC(=O)[C@H](CCN)NC(=O)[C@H](CC(C)C)OC(=O)[C@@H](CC(C)C)NC(=O)[C@H](CCN)NC1=O)[C@@H](C)O [Example 7, Octanoyl-Dab-Thr-Dab-cyclo(S-S)[Cys-Dab-DLeu-OLe-Dab-Dab-Ttr]] (Octanoyl-[Dab]T[Dab]C[Dab][dL][Hica(2S)][Dab][Dab]; linker 4-C via X1)
P. aeruginosa ATCC 27853
  antibacterial activity (MIC): 2 µg/mL
E. coli MB1410
  antibacterial activity (MIC): 4 µg/mL
E. coli ATCC 25922
  antibacterial activity (MIC): 8 µg/mL
P. aeruginosa 36A
  antibacterial activity (MIC): 4 µg/mL
K. pneumoniae MB674
  antibacterial activity (MIC): 1 µg/mL
